Patent publication US20190125753A1, “COMPOUNDS AND METHODS FOR INCREASING HEMATOPOIESIS” (University of Southern California, priority 2016, published 2019)

Legend:
bone marrow HSPC = experiment: Multiple administration, competitive repopulation assay; type: in vivo, mouse
Procedure: The golden standard to determine HSPC number and activity is a competitive repopulation assay. The testing cells and competitor cells are mixed and transplanted to recipients to create an environment the testing cells compete with competitor cells to repopulate the recipients' hematopoietic system. The quantitative engraftment level reflects the testing cell stem/progenitor cell number.
In this study, donor mice (CD45.2) were treated with YH250 or DMSO every 48 hs for 4 round, then, bone marrow cells from the treated mice were recovered and mixed with competitive cells from non-treated normal mice for BMT to lethally irradiated recipients (FIG. 16A). Blood were collected periodically from recipient mice to determine HSPC activities.

[1] = tested on: lethally irradiated animals; experiment: Survival after lethal dose whole body radiation; type: in vivo, mouse
Procedure: We next tested if YH250 can rescue animals from lethal dose radiation. […] However, YH250 (2 mg/Kg) administrated 24 hours post radiation rescued 50% of animals (Kaplan-Meier analysis p=0.0002).
With 8.5Gy radiation, all the animals (100%) survived in YH250 treatment group while there are only 30% animals survived in DMSO treatment group (p=0.0016, FIG. 21C). […] In principle, to optimize radiation remediation therapy, it should be advantageous to first (a) symmetrically expand the remaining viable stem cell pool (either HSC or ISC), using a method to enhance symmetric non-differentiative proliferation, i.e., by blocking the p300/catenin interaction thereby enhancing CBP/catenin signaling and (b) subsequently induce the differentiation of the stem cell pool via asymmetric divisions to enhance tissue repair and regeneration as rapidly as possible using a CBP/catenin antagonist. We therefore decided to test sequential administration of the p300/catenin antagonist YH250, followed by subsequent administration of the CBP/catenin antagonist ICG-001. An additional potential therapeutic benefit utilizing a CBP/catenin antagonist would be protection against fibrosis, which is a common chronic complication associated with radiation damage. […] We thus treated mice with either vehicle, YH250 (single 2 mg/Kg s.c., injection at 24 h post irradiation), ICG-001 (single 50 mg/Kg s.c., injection at 24 h post irradiation) or the combination of YH250/ICG-001, with YH250 (2 mg/Kg) given 24 h post irradiation followed by ICG-001 (50 mg/Kg) injection for 5 consecutive days starting at 48 h post-irradiation. After irradiation and the corresponding treatments, no special care was provided. The life-span after irradiation was observed on a daily basis and recorded.

5-FU treated mice = experiment: Recovery from repeated 5-FU administration; type: in vivo, mouse
Procedure: To test if p300/-catenin antagonists can also promote multi-dosing chemotherapeutic drug induced bone marrow inhibition, 4 rounds of 5-FU (two doses in each round) administration were given to CD45.2 female mice. 150 mg/kg of 5-FU was given to mice for the first three rounds and then 200 mg/kg for the last round (4th round). The second dose of 5-FU was 6 days apart from the first dose of 5-FU in each round. Either DMSO or YH250 (2 mg/kg) were given to animals 24 hours after the first dose of 5-FU in each round of 5-FU administration (FIG. 25A). Animal body weight, survival rate and blood count changes were monitored. […] After each round of 5-FU administration, animals were allowed to recover to normal blood count before next round of 5-FU administration. FIG. 25E depicts the blood count at nadir points after each round of 5-FU administration.

R1 mESCs = experiment: Maintenance of mouse ES cell pluripotency, feeder free, 5 days; type: cell-based
Procedure: We also determined that IQ-1 indirectly, via binding to the PR72/130 subunit of PP2A, inhibited the p300/β-catenin interaction (Id). Therefore, we anticipated that YH249/250 should also maintain mESC pluripotency in a Wnt dependent manner. To test his, R1 mESCs were cultured under feeder free conditions in the presence or absence of YH249/250 for 5 days. […] Pluripotency markers, Oct4, Nanog, Sox2, SSEA-1 and ALP, were all expressed in the cells treated with Wnt3a and YH250 (FIG. 28b). Moreover, Wnt3a could be replaced with the selective GSK-3 inhibitor CHIR99021, which activates the Wnt signaling pathway (FIG. 28a, lower panel). […] In the event, similarly to ID-8, the combination of Wnt3a and YH249/250 provided morphologically undifferentiated colonies of H9 human embryonic stem cells (hESCs) without FGF and TGF (FIG. 28c). hPSC markers were detected by ALP staining and immunofluorescence (FIG. 28d). In addition to H9 cells, two other hESC lines and a human induced pluripotent stem (iPS) cell line could be also maintained undifferentiated morphology utilizing the same conditions (not shown).
Specifically, FIG. 28A-28D, show maintenance of ESC's pluripotency by YH249 and YH250. […] 28A, Typical colony morphologies of RI mouse ES cells cultured 5 days in [upper panel] 3 μM CHIR99021 and 1 μM PD0325901 (2i) medium, basal medium (2i medium without CHIR99021 and PD0325901), basal medium supplemented with 50 ng/ml Wnt3a alone, [middle panel] combination of 50 ng/ml Wnt3a and 2 μM IQ-1, 500 nM YH249 or 200 nM YH250, [lower panel] 3 μM of CHIR99021 alone, and combination of 3 μM CHIR99021 and 500 nM YH249 or 200 nM YH250. […] The blue signal (Wnt3a panels) represents DAPI nuclear staining. Bars indicate […]. […] The blue signal (Wnt3a panels) represents DAP1 nuclear staining. Scale bars indicate 100 am.

[2] = especially last three rounds of 5-FU

COc1cccc(CNC(=O)N2C3CN(Cc4cc(Cl)cc(Cl)c4N(C)C)C(=O)[C@H](Cc4ccc(O)cc4)N3C(=O)CN2C)c1OC (stereo partly drawn) [YH250]
BrdU positive cells in HSPC compartment (bone marrow HSPC; LSK34negt135neg, LSK34neg135neg48negt150posit, LSK34posit135negt cells): more BrdU positive cells
engraftment level at day 140 and 164 vs day 40 after BMT (bone marrow HSPC; donors treated every 48 hs for 4 round, p<0.01, n=5/group): significantly increased
engraftment level vs DMSO treated cells (bone marrow HSPC; no statistical significance (n=5)): higher than DMSO treated cells
body weight vs DMSO ([1]; 8.5Gy): less body weight drop
animals survived ([1]; 8.5Gy (LD70/60), 2 mg/Kg 24 hours post radiation, DMSO 30%, p=0.0016): 100%
body weight ([1]; 9Gy): less body weight drop
animals rescued (survival) ([1]; 9Gy (LD100/60), 2 mg/Kg 24 hours post radiation, p=0.0002): 50%
life-span after irradiation vs control group ([1]; YH250 2 mg/Kg s.c. 24 h post irradiation, combination followed by ICG-001 50 mg/Kg 5 consecutive days from 48 h): significantly extended life-spans
RBC at nadir points (5-FU treated mice; 4 rounds of 5-FU): no significant effect on RBC
survival (5-FU treated mice; 5-FU 200 mg/kg (4th round), 60% died in DMSO group, p=0.04): all animals survived
WBC at nadir point (5-FU treated mice; [2]): significantly higher
platelet at nadir point (5-FU treated mice; [2]): significantly higher
body weight (5-FU treated mice; from second round of 5-FU administration, 2 mg/kg each round): less weight drop
pluripotency markers Oct4, Nanog, Sox2, SSEA-1 and ALP (R1 mESCs; Wnt3a and 200 nM YH250): all expressed
mESC pluripotency (R1 mESCs; with 50 ng/ml Wnt3a or 3 μM CHIR99021, 500 nM YH249 or 200 nM YH250, 5 days): maintain pluripotency
